Source: patent EP1935986B1, “Luminogenic and fluorogenic compounds and methods to detect molecules or conditions” (priority 2005, dated 2006)

What was measured:
QuantiLum Luciferase [1] = target: T1, QuantiLum Luciferase (Photinus pyralis, UniProt P08659); assay: Residual active luciferase after reaction with luciferin derivatives (Steady Glo); assay type: biochemical, firefly; set-up: unit not given here
T1 construct: purchased Promega Corporation E170
Procedure: (§1) After producing the solutions in Table 37, the volume of all reactions was adjusted to 990 µl with water. […] While the light reading was being taken, a 10 µl sample of the reaction was diluted to 500 µl with enzyme stop solution (cooled on ice to 4°C) mixed and placed on ice and a second sample of 90 µl of reaction was added to 10 µl of Gel/HPLC stop and the tube placed at -20°C. A timer was started with the start of the first reaction and the start times of the remaining reactions was noted. At 15, 30, 45 and 60 minutes, each reaction was sampled as above and the light produced in the luminometer tubes was measured. At 7 and 22 minutes, the light produced in the luminometer tubes was read, but the reactions were not sampled.
After all samples were taken, 50 µl of the sample diluted into enzyme stop solution was mixed with 50 µl of Steady Glo Luciferase Reagent (Promega) and the light produced measured after incubating at room temperature for 10 minutes. This measured the active luciferase in the initial reaction.
as §1, with “40,” for “37,”

QuantiLum Luciferase [2] = target: T1, QuantiLum Luciferase; assay: Firefly luciferase reaction with luciferin derivatives: light emission over time (with or without ATP, EDTA, coenzyme A, DTT); assay type: biochemical; set-up: unit not given here
Procedure: Gel and HPLC stop solution. Solid EDTA (free acid) was placed in a beaker with water and the pH of the solution adjusted to pH 7.0. The solution was then adjusted in volume to produce a solution 400 mM in EDTA.
Enzyme stop solution. A solution was prepared containing 20 mM Bis Tris, pH 6.5, 2 mM EDTA and 1mg/ml bovine serum albumin.
Reaction buffer (2X). A solution was made containing 100 mM HEPES buffer, pH 8.0; 10 mM MgCl2.
DTT stock. Solid DTT (dithiothreatol) was dissolved in water and then adjusted to pH 8.0 with solid sodium hydroxide. The solution was then adjusted in volume to produce a solution 1 M in DTT.
as §1
as §1, with “40,” for “37,”

[3] = One-step fluorogenic MAO assay with MAO-F3, control wells with H2O instead of MAO (fluorescence of the derivative); assay type: biochemical
Procedure: (§2) The fluorescent signal was then measured (excitation/emission = 355/460 nm) on a Fluoroskan Ascent plate fluorometer.
(§3) This 90 µl contained 35 µl 200 mM Tricine pH 8.3, 35 µl 200 mM Tricine pH 8.7 (or water), 10 µl 200 mM MgSO4, and 10 µl of each substrate dilution.

[4] = target: T2, human recombinant monoamine oxidase A (MAO A) (Homo sapiens, UniProt P21397); assay: One-step fluorogenic MAO assay with MAO-F3; assay type: biochemical; set-up: purchased Sigma Chemical Company M-7316; host or cells: baculovirus infected insect cells (microsomes)
T2 sequence (P21397 1-527): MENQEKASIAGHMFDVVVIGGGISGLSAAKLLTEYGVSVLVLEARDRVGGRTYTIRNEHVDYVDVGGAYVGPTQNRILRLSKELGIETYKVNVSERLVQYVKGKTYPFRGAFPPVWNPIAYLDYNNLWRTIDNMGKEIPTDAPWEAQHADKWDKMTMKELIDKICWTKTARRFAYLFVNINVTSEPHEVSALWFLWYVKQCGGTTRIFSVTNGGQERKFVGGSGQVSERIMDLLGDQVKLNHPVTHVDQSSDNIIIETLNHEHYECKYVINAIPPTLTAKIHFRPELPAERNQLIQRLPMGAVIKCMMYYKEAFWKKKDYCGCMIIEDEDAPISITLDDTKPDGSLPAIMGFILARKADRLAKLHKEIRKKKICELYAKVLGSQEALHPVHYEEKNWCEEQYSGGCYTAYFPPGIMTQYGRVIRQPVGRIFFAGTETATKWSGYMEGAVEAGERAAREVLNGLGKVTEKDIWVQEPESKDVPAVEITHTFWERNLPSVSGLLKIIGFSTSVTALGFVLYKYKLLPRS
Procedure: as §2, §3

[5] = target: T3, human recombinant monoamine oxidase B (MAO B) (Homo sapiens, UniProt P27338); assay: One-step fluorogenic MAO assay with MAO-F3; assay type: biochemical
T3 construct: purchased Sigma Chemical Company M-7441; host or cells: baculovirus infected insect cells (microsomes)
T3 sequence (P27338 1-520): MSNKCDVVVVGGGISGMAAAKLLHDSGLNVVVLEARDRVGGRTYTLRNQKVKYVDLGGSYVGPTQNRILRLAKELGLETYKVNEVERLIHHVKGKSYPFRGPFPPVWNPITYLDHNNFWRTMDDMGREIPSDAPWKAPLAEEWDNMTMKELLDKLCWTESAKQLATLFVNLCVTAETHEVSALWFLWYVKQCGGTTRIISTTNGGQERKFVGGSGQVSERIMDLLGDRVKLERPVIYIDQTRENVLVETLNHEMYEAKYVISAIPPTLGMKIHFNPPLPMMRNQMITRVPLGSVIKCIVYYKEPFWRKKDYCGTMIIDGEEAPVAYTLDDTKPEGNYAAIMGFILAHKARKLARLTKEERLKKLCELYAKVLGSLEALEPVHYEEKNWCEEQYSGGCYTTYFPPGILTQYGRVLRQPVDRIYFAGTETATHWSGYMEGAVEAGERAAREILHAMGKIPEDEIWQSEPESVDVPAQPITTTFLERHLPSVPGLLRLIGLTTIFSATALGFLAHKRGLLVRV
Procedure: as §2, §3

[6] = fit of Table 31, fluorescence 355/460 nm

T1 sequence (P08659 whole entry): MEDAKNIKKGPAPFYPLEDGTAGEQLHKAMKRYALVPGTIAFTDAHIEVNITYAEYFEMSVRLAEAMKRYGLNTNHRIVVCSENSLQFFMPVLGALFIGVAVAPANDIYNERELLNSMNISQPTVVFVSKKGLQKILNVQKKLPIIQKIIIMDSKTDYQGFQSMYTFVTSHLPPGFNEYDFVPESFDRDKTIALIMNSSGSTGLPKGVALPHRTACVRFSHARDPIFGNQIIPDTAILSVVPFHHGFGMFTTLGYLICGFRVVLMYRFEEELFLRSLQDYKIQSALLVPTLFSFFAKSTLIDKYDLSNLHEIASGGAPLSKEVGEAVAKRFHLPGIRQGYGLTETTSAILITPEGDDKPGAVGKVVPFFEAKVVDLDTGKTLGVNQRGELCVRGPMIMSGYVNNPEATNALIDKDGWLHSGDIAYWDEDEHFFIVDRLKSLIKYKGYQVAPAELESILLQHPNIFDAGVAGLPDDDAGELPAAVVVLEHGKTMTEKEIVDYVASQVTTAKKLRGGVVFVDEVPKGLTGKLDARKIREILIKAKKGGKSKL

## O=C(O)[C@H]1CSC(c2nc3ccc(OCc4ccccc4)cc3s2)=N1 [Luc'in BE]
QuantiLum Luciferase [1]; +CoA, 0 min
  Light reading from residual active enzyme at time: 186.7
QuantiLum Luciferase [1]; +CoA, 15 min
  Light reading from residual active enzyme at time: 179.6
QuantiLum Luciferase [1]; +CoA, 30 min
  Light reading from residual active enzyme at time: 179.4
QuantiLum Luciferase [1]; +CoA, 45 min
  Light reading from residual active enzyme at time: 157.9
QuantiLum Luciferase [1]; +CoA, 60 min
  Light reading from residual active enzyme at time: 161.8
QuantiLum Luciferase [1]; No addition, 0 min
  Light reading from residual active enzyme at time: 129.7
QuantiLum Luciferase [1]; No addition, 15 min
  Light reading from residual active enzyme at time: 69.9
QuantiLum Luciferase [1]; No addition, 30 min
  Light reading from residual active enzyme at time: 47.31
QuantiLum Luciferase [1]; No addition, 45 min
  Light reading from residual active enzyme at time: 37.94
QuantiLum Luciferase [1]; No addition, 60 min
  Light reading from residual active enzyme at time: 29.08
QuantiLum Luciferase [1]; w/o ATP, 0 min
  Light reading from residual active enzyme at time: 168.3
QuantiLum Luciferase [1]; w/o ATP, 15 min
  Light reading from residual active enzyme at time: 174.1
QuantiLum Luciferase [1]; w/o ATP, 30 min
  Light reading from residual active enzyme at time: 171.7
QuantiLum Luciferase [1]; w/o ATP, 45 min
  Light reading from residual active enzyme at time: 172.9
QuantiLum Luciferase [1]; w/o ATP, 60 min
  Light reading from residual active enzyme at time: 164
QuantiLum Luciferase [2]; +Co A, 7 min
  Light reading at time: 11.92
QuantiLum Luciferase [2]; +Co A, 22 min
  Light reading at time: 9.941
QuantiLum Luciferase [2]; +CoA, 0 min
  Light reading at time: 139.5
QuantiLum Luciferase [2]; +CoA, 15 min
  Light reading at time: 10.99
QuantiLum Luciferase [2]; +CoA, 30 min
  Light reading at time: 7.379
QuantiLum Luciferase [2]; +CoA, 45 min
  Light reading at time: 7.284
QuantiLum Luciferase [2]; +CoA, 60 min
  Light reading at time: 6.433
QuantiLum Luciferase [2]; +DTT, 0 min
  Light reading at time: 948
QuantiLum Luciferase [2]; +DTT, 7 min
  Light reading at time: 532.8
QuantiLum Luciferase [2]; +DTT, 15 min
  Light reading at time: 417
QuantiLum Luciferase [2]; +DTT, 22 min
  Light reading at time: 369.5
QuantiLum Luciferase [2]; +DTT, 30 min
  Light reading at time: 331.6
QuantiLum Luciferase [2]; +DTT, 45 min
  Light reading at time: 273.5
QuantiLum Luciferase [2]; +DTT, 60 min
  Light reading at time: 226.9
QuantiLum Luciferase [2]; No addition, 0 min
  Light reading at time: 135.2
QuantiLum Luciferase [2]; No addition, 7 min
  Light reading at time: 22.61
QuantiLum Luciferase [2]; No addition, 15 min
  Light reading at time: 12.79
QuantiLum Luciferase [2]; No addition, 22 min
  Light reading at time: 9.256
QuantiLum Luciferase [2]; No addition, 30 min
  Light reading at time: 6.928
QuantiLum Luciferase [2]; No addition, 45 min
  Light reading at time: 4.879
QuantiLum Luciferase [2]; No addition, 60 min
  Light reading at time: 3.311
QuantiLum Luciferase [2]; w/o ATP, 0 min
  Light reading at time: 0.015
QuantiLum Luciferase [2]; w/o ATP, 7 min
  Light reading at time: 0
QuantiLum Luciferase [2]; w/o ATP, 15 min
  Light reading at time: 0.008
QuantiLum Luciferase [2]; w/o ATP, 22 min
  Light reading at time: 0.005
QuantiLum Luciferase [2]; w/o ATP, 30 min
  Light reading at time: 0
QuantiLum Luciferase [2]; w/o ATP, 45 min
  Light reading at time: 0
QuantiLum Luciferase [2]; w/o ATP, 60 min
  Light reading at time: 0.01

## CNCCCOc1ccc2c(C)cc(=O)oc2c1 [MAO-F3, 7-(4-methyl-3-N-methylaminopropoxy)coumarin]
[3]; [MAO-F3] 0.21 µM
  relative fluorescent signal, no MAO: 48
[3]; [MAO-F3] 0.84 µM
  relative fluorescent signal, no MAO: 57
[3]; [MAO-F3] 3.37 µM
  relative fluorescent signal, no MAO: 118
[3]; [MAO-F3] 6.75 µM
  relative fluorescent signal, no MAO: 197
[3]; [MAO-F3] 13.50 µM
  relative fluorescent signal, no MAO: 348
[3]; [MAO-F3] 26.99 µM
  relative fluorescent signal, no MAO: 633
[3]; [MAO-F3] 53.98 µM
  relative fluorescent signal, no MAO: 1210
[3]; [MAO-F3] 215.94 µM
  relative fluorescent signal, no MAO: 3375
[3]; [MAO-F3] 431.88 µM
  relative fluorescent signal, no MAO: 5097
[3]; [MAO-F3] 863.75 µM
  relative fluorescent signal, no MAO: 6761
[4]; [MAO-F3] 0.21 µM
  relative fluorescent signal, MAO A: 240
  relative fluorescent signal, net A: 192
[4]; [MAO-F3] 0.84 µM
  relative fluorescent signal, MAO A: 815
  relative fluorescent signal, net A: 758
[4]; [MAO-F3] 3.37 µM
  relative fluorescent signal, MAO A: 2604
  relative fluorescent signal, net A: 2486
[4]; [MAO-F3] 6.75 µM
  relative fluorescent signal, MAO A: 4129
  relative fluorescent signal, net A: 3932
[4]; [MAO-F3] 13.50 µM
  relative fluorescent signal, MAO A: 6078
  relative fluorescent signal, net A: 5730
[4]; [MAO-F3] 26.99 µM
  relative fluorescent signal, MAO A: 8461
  relative fluorescent signal, net A: 7828
[4]; [MAO-F3] 53.98 µM
  relative fluorescent signal, MAO A: 11555
  relative fluorescent signal, net A: 10345
[4]; [MAO-F3] 215.94 µM
  relative fluorescent signal, MAO A: 16721
  relative fluorescent signal, net A: 13346
[4]; [MAO-F3] 431.88 µM
  relative fluorescent signal, MAO A: 19530
  relative fluorescent signal, net A: 14433
[4]; [MAO-F3] 863.75 µM
  relative fluorescent signal, MAO A: 21154
  relative fluorescent signal, net A: 14393
[4]; fit of Table 31
  signal-to-background ratios at the Km values: about 15
[4]; [6]
  Km: 21 ± 1 µM
[5]; [MAO-F3] 0.21 µM
  relative fluorescent signal, MAO B: 202
  relative fluorescent signal, net B: 154
[5]; [MAO-F3] 0.84 µM
  relative fluorescent signal, MAO B: 689
  relative fluorescent signal, net B: 632
[5]; [MAO-F3] 3.37 µM
  relative fluorescent signal, MAO B: 2198
  relative fluorescent signal, net B: 2080
[5]; [MAO-F3] 6.75 µM
  relative fluorescent signal, MAO B: 3683
  relative fluorescent signal, net B: 3486
[5]; [MAO-F3] 13.50 µM
  relative fluorescent signal, MAO B: 5239
  relative fluorescent signal, net B: 4891
[5]; [MAO-F3] 26.99 µM
  relative fluorescent signal, MAO B: 7468
  relative fluorescent signal, net B: 6835
[5]; [MAO-F3] 53.98 µM
  relative fluorescent signal, MAO B: 9885
  relative fluorescent signal, net B: 8675
[5]; [MAO-F3] 215.94 µM
  relative fluorescent signal, MAO B: 14149
  relative fluorescent signal, net B: 10774
[5]; [MAO-F3] 431.88 µM
  relative fluorescent signal, MAO B: 16590
  relative fluorescent signal, net B: 11493
[5]; [MAO-F3] 863.75 µM
  relative fluorescent signal, MAO B: 17322
  relative fluorescent signal, net B: 10561
[5]; fit of Table 31
  signal-to-background ratios at the Km values: about 13
[5]; [6]
  Km: 16 ± 1 µM
